Experimental data taken from patent US11540516B2, “M-diamide compound and preparation method therefor and use thereof” (priority 2018, dated 2023).
Read-outs that look alike come from different tables or passages of the source.

Experiments:
Assay type in all cases: in vivo
[1] = system: Spodoptera exigua Hiibner; experiment: Indoor bioactivity test against Spodoptera exigua Hiibner (leaf dip); settings: foliar, 3rd day after treatment
Procedure: (§1) The leaf dip method was used to assay the insecticidal activity of compounds to strains of Spodoptera exigua Hiibner. Dip the leaf disc into the solution prepared with compound of this invention for 10 seconds, and dry them in a cool environment. Then place them in Petri dish with 4 discs per dish. Put the filter paper into the Petri dish to moisturize it. Put 10 of Spodoptera exigua Hiibners into each dish, which was repeated by 3 times. The dishes were placed in an illumination incubator and incubated at 25° C. with 14 hL: 10 hD illumination. The number of Spodoptera exigua Hiibner death was investigated on the 1st, 2nd and 3rd day after treatment, and the mortality was calculated.

Chilo suppressalis = experiment: Indoor bioactivity test against Chilo suppressalis (rice stem dip)
Procedure: The leaf dip method was used to assay the insecticidal activity of compounds to strains of Chilo suppressalis. The rice was cultivated in a plastic pot with a diameter of 9 cm and a height of 10 cm. When the rice grew about 25 cm, the aerial part of robust and consistent rice seedlings were selectively cut. Their leaves were removed and their stems of about 8 cm were kept for use. Pour the solution prepared with compound of this invention into the Petri dish (about 40 mL) and immerse the rice stems into the solution for 10 seconds. Take rice stems out and dry them in a cool environment. Put a wet cotton ball at the bottom of finger-like glass tube and 5 rice stems in each tube. Put 10 of 3rd-instar larvae of Chilo suppressa into each tube, which was repeated by 3 times. Seal the tubes with black cotton cloth and tighten them with rubber band. The tubes were placed in a illumination incubator at 28° C. and incubated in the dark. The number of alive Chilo suppressalis and the total number were investigated 3 days after treatment. The mortality was calculated.
According to the above method, Compound 23 and KC2 were selected and parallelly tested against Chilo suppressalis.

Spodoptera litura = experiment: Indoor bioactivity test against Spodoptera litura (leaf dip); settings: foliar
Procedure: as §1, with “litura.” for “exigua Hiibner.”, “litura” for “exigua Hiibners”, “litura” for “exigua Hiibner”
According to the above method, compound 4, 23 and KC1 were selected and parallelly tested against Spodoptera litura to compare the insecticidal activity.

Mythimna separata = experiment: Indoor bioactivity test against Mythimna separata (leaf dip); settings: foliar, 3rd day after treatment
Source text: The leaf dip method was used to assay the insecticidal activity of compounds to strains of Mythimna sepatata. Cut above ground part of fresh maize seedlings, about 10 cm. Dip the maize seedlings into the solution prepared with compound of this invention for 10 seconds and dry them in a cool environment. Then cut the dry maize seedlings into 3˜5 cm leaf sections and put 3 leaf sections into each petri dish. Put ten of 4th-instar larvae of Mythimna separatas into each dish, which was repeated by 3 times. Then the dishes were placed in an illumination incubator and incubated at 25° C. in the dark. Symptoms were investigated on the 1st, 2nd and 3rd day after treatment, and the mortality was calculated.

Plutella xylostella = experiment: Indoor bioactivity test against Plutella xylostella (leaf dip); settings: foliar; for mortality at 1 ppm / mortality at 0.4 ppm: 3rd day after treatment
Procedure: as §1, with “Plutella xylostella.” for “Spodoptera exigua Hiibner.”, “Plutella xylostella” for “Spodoptera exigua Hiibners”, “Plutella xylostella” for “Spodoptera exigua Hiibner”
According to the above method, compound 4 and KC1 were selected and parallelly tested against Plutella xylostella to compare their insecticidal activity.

soybean thrips = experiment: Biological activity on soybean thrips in greenhouse (foliar spray)
Procedure: Test system: naturally occurring thrips population on soybeans planted in greenhouse. The basic number of active thripses were more than 100 thripses per trifoliate leaf. Under the same conditions, the sensitivity of the thrips population to Spinetoram (dose: 50 mg/L) is 96.55% mortality on the 6th day after treatment.
The size of the plot: 10 m^2, no repetition.
Test formulation: each compound was made into 5% SL (compound 5%+emulsifier 5%+solvent to make up 100%).
(1) Spraying time: both adult and larva thripses were in the active period. The number of spray: 1 time.
(2) Standard for water usage: when dose was in mg/kg, the upper leaves were wet and water began to drop therefrom.
(3) Survey standard: count three single leaves as one leaf. Three leaves were randomly selected and investigated for the number of adult and larva thripses on them.
[…] 2 surveys were conducted.

[2] = dose 50 ppm, 1 d, foliar spray, 5% SL
[3] = dose 50 ppm, 6 d, foliar spray, 5% SL
[4] = 3rd day after treatment, read-out: mortality of Chilo suppressalis
[5] = 24 h, read-out: Mortality (%) 1 d
[6] = 48 h, read-out: Mortality (%) 2 d
[7] = 72 h, read-out: Mortality (%) 3 d

For `O=C(Nc1c(I)cc(C(F)(C(F)(F)F)C(F)(F)F)cc1C(F)(F)F)c1cccc(N(CC2CC2)C(=O)c2ccc(I)cc2)c1F` [Compound 53, N-(2-iodo-4-(perfluoropropan-2-yl)-6-(trifluoromethyl)phenyl)-3-(N-(cyclopropylmethyl)-4-iodobenzamido)-2-fluorobenzamide], the mortality at 10 ppm ([1]; 10 ppm) was no less than 90%, the mortality at 10 ppm (Chilo suppressalis; 3rd day after treatment) was no less than 90% and the mortality at 10 ppm (Spodoptera litura; 3rd day after treatment) was no less than 90%.
Work on `CC(C1CC1)N(C(=O)c1ccc(Br)cc1)c1cccc(C(=O)Nc2c(Br)cc(C(F)(C(F)(F)F)C(F)(F)F)cc2C(F)(F)F)c1F` (centres unmarked) [Compound 50, N-(2-bromo-4-(perfluoropropan-2-yl)-6-(trifluoromethyl)phenyl)-3-(4-bromo-N-(1-cyclopropylethyl)benzamido)-2-fluorobenzamide] yielded a mortality at 10 ppm (Chilo suppressalis; 3rd day after treatment) of no less than 90%.
`CS(=O)(=O)c1ccc(C(=O)N(CC2CC2)c2cccc(C(=O)Nc3c(Br)cc(C(F)(C(F)(F)F)C(F)(F)F)cc3C(F)(F)F)c2F)cc1` [Compound 57, N-(2-bromo-4-(perfluoropropan-2-yl)-6-(trifluoromethyl)phenyl)-3-(N-(cyclopropylmethyl)-4-(methylsulfonyl)benzamido)-2-fluorobenzamide] showed a mortality at 1 ppm [1] of 90%, a mortality at 1 ppm (Mythimna separata) of no less than 90% and a mortality at 1 ppm (Plutella xylostella) of no less than 90%. The mortality at 10 ppm (Spodoptera litura; 3rd day after treatment) was no less than 90%.
Compound `O=C(Nc1c(I)cc(C(F)(C(F)(F)F)C(F)(F)F)cc1C(F)(F)F)c1cccc(N(CC2CC2)C(=O)c2ccc(Br)cc2)c1F` [Compound 47, N-(2-iodo-4-(perfluoropropan-2-yl)-6-(trifluoromethyl)phenyl)-3-(4-bromo-N-(cyclopropylmethyl)benzamido)-2-fluorobenzamide] has a mortality at 1 ppm [1] of 90%, a mortality at 1 ppm (Mythimna separata) of no less than 90% and a mortality at 10 ppm (Chilo suppressalis; 3rd day after treatment) of no less than 90%. The mortality at 0.4 ppm (Spodoptera litura; 0.4 ppm, 3rd day after treatment, read-out: mortality of Spodoptera litura) was no less than 90%.
In the case of Spinetoram [reference compound], the “sensitivity of the thrips population, mortality” value (soybean thrips; dose 50 mg/L, 6th day after treatment) is reported as 96.55%, the “Mortality % 1 d” value (soybean thrips; [2]) is reported as 93.94% and the “No. of thrips 1 d” value (soybean thrips; [2]) is reported as 16. For the same compound, the “Mortality % 6 d” value (soybean thrips; [3]) was 96.55% and the “No. of thrips 6 d” value (soybean thrips; [3]) was 4.
Compound `CN(C(=O)c1ccc(C#N)cc1)c1cccc(C(=O)Nc2c(Br)cc(C(F)(C(F)(F)F)C(F)(F)F)cc2C(F)(F)F)c1F` [KC2, reference compound] has a mortality at 0.4 ppm (Chilo suppressalis; 72 h, 0.4 ppm, 3d) of 0%, a mortality at 1 ppm (Chilo suppressalis; 72 h, 1 ppm, 3d) of 53.3% and a mortality at 2 ppm (Chilo suppressalis; 72 h, 2 ppm, 3d) of 86.7%. For the same compound, the mortality at 5 ppm (Chilo suppressalis; 72 h, 3d, read-out: Mortality (%, 3d) 5 ppm) was 93.3%.
`CC(C1CC1)N(C(=O)c1ccc(C#N)cc1)c1cccc(C(=O)Nc2c(Br)cc(C(F)(C(F)(F)F)C(F)(F)F)cc2C(F)(F)F)c1F` (centres unmarked) [Compound 26, N-(2-bromo-4-(perfluoropropan-2-yl)-6-(trifluoromethyl)phenyl)-3-(4-cyano-N-(1-cyclopropylethyl)benzamido)-2-fluorobenzamide] gave a mortality at 1 ppm (Mythimna separata) of no less than 90%, a mortality at 0.4 ppm (Plutella xylostella) of no less than 90% and a mortality at 5 ppm (Chilo suppressalis; [4]) of no less than 90%.
`O=C(Nc1c(Br)cc(C(F)(C(F)(F)F)C(F)(F)F)cc1C(F)(F)F)c1cccc(N(C(=O)c2ccccc2)C(C2CC2)C2CC2)c1F` [Compound 22, N-(2-bromo-4-(perfluoropropan-2-yl)-6-(trifluoromethyl)phenyl)-3-(N-(dicyclopropylmethyl)benzamido)-2-fluorobenzamide] showed a mortality at 1 ppm (Mythimna separata) of no less than 90%.
Work on `CC(C1CC1)N(C(=O)c1ccc(Cl)cc1)c1cccc(C(=O)Nc2c(Br)cc(C(F)(C(F)(F)F)C(F)(F)F)cc2C(F)(F)F)c1F` (centres unmarked) [Compound 44, N-(2-bromo-4-(perfluoropropan-2-yl)-6-(trifluoromethyl)phenyl)-3-(4-chloro-N-(1-cyclopropylethyl)benzamido)-2-fluorobenzamide] yielded a mortality at 1 ppm (Mythimna separata) of no less than 90%.
`O=C(Nc1c(Br)cc(C(F)(C(F)(F)F)C(F)(F)F)cc1C(F)(F)F)c1cccc(N(CC2CC2)C(=O)c2ccc(Br)cc2)c1F` [Compound 46, N-(2-bromo-4-(perfluoropropan-2-yl)-6-(trifluoromethyl)phenyl)-3-(4-bromo-N-(cyclopropylmethyl)benzamido)-2-fluorobenzamide] gave a mortality at 1 ppm [1] of 90% and a mortality at 5 ppm (Chilo suppressalis; [4]) of no less than 90%.
For `CC(C1CC1)N(C(=O)c1ccc(C(F)(F)F)cc1)c1cccc(C(=O)Nc2c(Br)cc(C(F)(C(F)(F)F)C(F)(F)F)cc2C(F)(F)F)c1F` (centres unmarked) [Compound 39, N-(2-bromo-4-(perfluoropropan-2-yl)-6-(trifluoromethyl)phenyl)-3-(N-(1-cyclopropylethyl)-4-(trifluoromethyl)benzamido)-2-fluorobenzamide], the mortality at 1 ppm (Mythimna separata) was no less than 90%, the mortality at 1 ppm (Plutella xylostella) was no less than 90% and the mortality at 10 ppm (Chilo suppressalis; 3rd day after treatment) was no less than 90%.
`CN(C(=O)c1ccccc1)c1cccc(C(=O)Nc2c(Br)cc(C(F)(C(F)(F)F)C(F)(F)F)cc2C(F)(F)F)c1F` [KC1 (broflanilide), broflanilide, reference compound] was tested, and the mortality at 0.04 ppm (Plutella xylostella; [5]) was 0%, the mortality at 0.04 ppm (Plutella xylostella; [6]) was 56.7% and the mortality at 0.04 ppm (Plutella xylostella; [7]) was 90%. The mortality at 0.4 ppm (Spodoptera litura; [5]) was 0%, the mortality at 1 ppm (Spodoptera litura; [5]) was 26.7% and the mortality at 0.4 ppm (Spodoptera litura; [6]) was 0%. It also gave a mortality at 1 ppm (Spodoptera litura; [6]) of 33.3%, a mortality at 0.4 ppm (Spodoptera litura; [7]) of 0% and a mortality at 1 ppm (Spodoptera litura; [7]) of 33.3%.
`CC(C1CC1)N(C(=O)c1ccc(F)cc1)c1cccc(C(=O)Nc2c(Br)cc(C(F)(C(F)(F)F)C(F)(F)F)cc2C(F)(F)F)c1F` (centres unmarked) [Compound 63, N-(2-bromo-4-(perfluoropropan-2-yl)-6-(trifluoromethyl)phenyl)-3-(N-(1-cyclopropylethyl)-4-fluorobenzamido)-2-fluorobenzamide] showed a mortality at 1 ppm (Plutella xylostella) of no less than 90%.
For `O=C(Nc1c(Br)cc(C(F)(C(F)(F)F)C(F)(F)F)cc1C(F)(F)F)c1cccc(N(CC2CC2)C(=O)c2ccc(I)cc2)c1F` [Compound 52, N-(2-bromo-4-(perfluoropropan-2-yl)-6-(trifluoromethyl)phenyl)-3-(N-(cyclopropylmethyl)-4-iodobenzamido)-2-fluorobenzamide], the mortality at 1 ppm (Mythimna separata) was no less than 90%, the mortality at 10 ppm (Chilo suppressalis; 3rd day after treatment) was no less than 90% and the mortality at 10 ppm (Spodoptera litura; 3rd day after treatment) was no less than 90%.
`CC(C1CC1)N(C(=O)c1ccccc1)c1cccc(C(=O)Nc2c(Br)cc(C(F)(C(F)(F)F)C(F)(F)F)cc2C(F)(F)F)c1F` (centres unmarked) [Compound 8, N-(2-bromo-4-(perfluoropropan-2-yl)-6-(trifluoromethyl)phenyl)-3-(N-(1-cyclopropylethyl)benzamido)-2-fluorobenzamide] was tested, and the mortality at 1 ppm (Mythimna separata) was no less than 90% and the mortality at 0.4 ppm (Plutella xylostella) was no less than 90%.
With `COC(c1cc(Br)c(NC(=O)c2cccc(N(CC3CC3)C(=O)c3ccc(C(F)(F)F)cc3)c2F)c(C(F)(F)F)c1)(C(F)(F)F)C(F)(F)F` [Compound 38, N-(2-bromo-4-(1,1,1,3,3,3-hexafluoro-2-methoxypropan-2-yl)-6-(trifluoromethyl)phenyl)-3-(N-(cyclopropylmethyl)-4-(trifluoromethyl)benzamido)-2-fluorobenzamide] the mortality at 1 ppm (Mythimna separata) was no less than 90%.
